The target in one assay is T1, human PPARγ (Homo sapiens, UniProt P37231).
T1 sequence (P37231 1-477 isoform P37231-2): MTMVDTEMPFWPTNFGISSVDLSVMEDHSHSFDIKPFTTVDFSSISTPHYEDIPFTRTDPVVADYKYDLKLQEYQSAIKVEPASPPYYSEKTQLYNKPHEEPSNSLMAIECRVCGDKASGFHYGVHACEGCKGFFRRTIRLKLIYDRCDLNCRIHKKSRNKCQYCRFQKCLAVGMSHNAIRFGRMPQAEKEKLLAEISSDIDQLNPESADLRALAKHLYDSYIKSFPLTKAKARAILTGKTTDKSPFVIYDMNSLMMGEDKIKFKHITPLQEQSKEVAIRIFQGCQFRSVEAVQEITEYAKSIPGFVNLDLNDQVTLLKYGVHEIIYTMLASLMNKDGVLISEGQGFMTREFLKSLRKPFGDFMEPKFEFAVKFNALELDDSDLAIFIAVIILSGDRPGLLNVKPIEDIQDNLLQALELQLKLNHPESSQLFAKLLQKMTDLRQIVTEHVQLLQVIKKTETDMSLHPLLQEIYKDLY
As to the kind of experiment: PPARγ luciferase reporter gene transactivation in transfected HEK-293 cells. To be noted: for PPARγ activation maximal fold activation: HEK-293, 18 h, fold induction above vehicle control (DMSO 0.1%). A general note: Reporter assays use an easily measured gene product as a stand-in for the process of interest.

In another assay the target is T2, human PPARβ/δ (Homo sapiens, UniProt Q03181).
T2 construct: expressed in transfected cells; host or cells: HEK-293
T2 sequence (Q03181 1-441): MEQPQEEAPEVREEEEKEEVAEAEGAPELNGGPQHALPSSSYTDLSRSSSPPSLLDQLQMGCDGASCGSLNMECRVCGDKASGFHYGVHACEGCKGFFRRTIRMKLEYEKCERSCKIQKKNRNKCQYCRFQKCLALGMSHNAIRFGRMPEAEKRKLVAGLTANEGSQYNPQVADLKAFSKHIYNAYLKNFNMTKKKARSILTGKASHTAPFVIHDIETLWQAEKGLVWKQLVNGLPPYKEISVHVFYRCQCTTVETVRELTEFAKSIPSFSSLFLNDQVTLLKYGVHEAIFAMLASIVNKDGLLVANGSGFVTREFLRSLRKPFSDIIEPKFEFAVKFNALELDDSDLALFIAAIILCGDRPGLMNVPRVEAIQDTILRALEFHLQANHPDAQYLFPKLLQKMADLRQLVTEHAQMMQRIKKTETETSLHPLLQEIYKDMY
The experiment in a line: PPARβ/δ luciferase reporter gene transactivation in transfected HEK-293 cells. Format: cell-based. To be noted: HEK-293, tk-PPREx3-luc reporter, 18 h, 0.1–30 µM; n.d. = not detected up to 30 µM; read-out: PPARβ/δ activation EC50. On the procedure:
(§1) HEK-293 cells (ATCC, USA) were cultured in DMEM with phenol red, supplemented with 100 U/ml benzylpenicillin, 100 µg/ml streptomycin, 2 mM L-glutamine, and 10% FBS. Cells were maintained in 75 cm^2 flasks containing 10 ml medium at 37°C and 5% CO2. The cells were seeded in 10 cm dishes at a density of 6 × 10^6 cells/dish, incubated for 18 h, and transfected by the calcium phosphate precipitation method with 4 µg of the reporter plasmid (tk-PPREx3-luc), 4 µg from the respective PPAR subtype expression plasmid, and 2 µg green fluorescent protein plasmid (pEGFP-N1, Clontech, Mountain View, CA) as internal control. After 6 h, the transfected cells were harvested and re-seeded (5 × 10^4 cells/well) in 96-well plates containing DMEM without phenol red, supplemented with 100 U/ml benzylpenicillin, 100 µg/ml streptomycin, 2 mM L-glutamine, and 5% charcoal-stripped FBS. The cells were further treated with the indicated extracts or compounds or the solvent vehicle and incubated for 18 h. The medium was then discarded and the cells were lysed with a reporter lysis buffer (E3971, Promega, Madison, USA). Luciferase activity of the cell lysates was evaluated using a GeniosPro plate reader (Tecan, Grödig, Austria). The luminescence signals obtained from the luciferase activity measurements were normalized to the EGFP-derived fluorescence, to account for differences in the transfection efficiency or cell number.

In the next assay the target is T3, human PPARα (Homo sapiens, UniProt Q07869).
T3 construct: expressed in transfected cells; host or cells: HEK-293
T3 sequence (Q07869 1-468): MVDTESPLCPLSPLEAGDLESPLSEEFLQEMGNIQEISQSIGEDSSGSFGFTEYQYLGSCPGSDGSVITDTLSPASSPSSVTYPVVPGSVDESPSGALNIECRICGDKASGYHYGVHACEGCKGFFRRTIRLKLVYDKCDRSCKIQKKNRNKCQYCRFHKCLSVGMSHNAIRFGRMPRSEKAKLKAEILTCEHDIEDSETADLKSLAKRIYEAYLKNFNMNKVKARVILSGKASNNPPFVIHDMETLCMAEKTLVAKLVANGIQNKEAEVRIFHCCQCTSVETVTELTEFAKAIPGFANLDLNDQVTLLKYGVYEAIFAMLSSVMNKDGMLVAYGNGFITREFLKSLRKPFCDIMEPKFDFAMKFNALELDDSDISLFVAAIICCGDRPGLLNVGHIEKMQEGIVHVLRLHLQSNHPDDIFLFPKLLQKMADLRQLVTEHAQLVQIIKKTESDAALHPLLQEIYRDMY
As to the kind of experiment: PPARα luciferase reporter gene transactivation in transfected HEK-293 cells. In kind it is cell-based. To be noted: HEK-293, tk-PPREx3-luc reporter, 18 h, 0.1–30 µM; n.d. = not detected up to 30 µM; read-out: PPARα activation EC50. The method, then:
as §1

The next assay has as its system 3T3-L1 adipocytes. The experiment in a line: 2-Deoxy-D-(1H^3)-glucose uptake in differentiated 3T3-L1 adipocytes. Conditions: 10 µM for 48 h, insulin 500 pM, vs vehicle, listed as falcarindiol. In kind it is cell-based. The method, then: Confluent 3T3-L1 preadipocytes (ATCC, USA) were differentiated (day 0) into mature adipocytes for 10 days (2 days in DMEM supplemented with 10% FBS, […], 1 µg/ml insulin and 500 nM dexamethasone followed by 2 days in DMEM/10% FBS/1 µg/ml insulin and 6 days in DMEM/10% FBS), and incubated with the test compounds (10 µM) or 0.1% DMSO as vehicle control for 48 h at 37°C. Before the experiment, cells were incubated for 4 h in DMEM/0.1% BSA followed by 1 h in KRH/BSA buffer (50 mM HEPES, 136 mM NaCl, 23.5 mM KCl, 1.25 mM MgSO4, 1.25 mM CaCl2 and 0.1% BSA). […] The glucose uptake rate was determined by liquid scintillation counting (Perkin Elmer, Waltham, MA, USA) of cell lysates (20 mM HEPES, 1% Igepal CA-630), and normalized to protein content assessed by the Bradford protein assay.
Figure 4 Assessment of adipogenicity and glucose uptake-enhancing properties of falcarindiol. […] For an estimate of accumulated lipids, and thus for the adipogenic potential of the test compounds, Oil Red O staining and photometric quantification at 550 nm was performed. […] (B) 3T3-L1 mature adipocytes were incubated with falcarindiol (10 µM) or solvent vehicle (0.1% DMSO) for 48 h and 2-deoxy-D-(1H^3)-glucose cellular uptake was determined for 10 min in the presence or absence (basal uptake) of insulin (500 pM). […]

Assay [1] deals with T4, human PPARγ ligand-binding domain (LBD) (Homo sapiens, UniProt P37231).
T4 construct: purchased Invitrogen
T4 sequence (P37231 238-503 limits assumed): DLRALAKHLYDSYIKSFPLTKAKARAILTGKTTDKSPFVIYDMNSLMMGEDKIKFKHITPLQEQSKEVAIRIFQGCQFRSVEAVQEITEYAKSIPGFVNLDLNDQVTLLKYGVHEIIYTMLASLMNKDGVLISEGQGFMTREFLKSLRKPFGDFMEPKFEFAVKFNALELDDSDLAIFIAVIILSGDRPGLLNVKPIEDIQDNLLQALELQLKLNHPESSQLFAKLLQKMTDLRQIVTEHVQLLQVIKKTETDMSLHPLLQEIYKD
The experiment in a line: LanthaScreen TR-FRET PPARγ competitive binding assay. To be noted: purified human PPARγ-LBD, 6 h incubation, Cheng-Prusoff from IC50.
Method: The LanthaScreen® time-resolved fluorescence resonance energy transfer (TR-FRET) PPARγ competitive binding assay (Invitrogen, Lofer, Austria) was performed according to the manufacturer’s protocol. The test compounds dissolved in DMSO or the blank solvent vehicle (DMSO) were incubated together with the human PPARγ ligand-binding domain (LBD) tagged with GST, a terbium-labeled anti-GST antibody, and a fluorescently labeled PPAR ligand (Fluormone Pan-PPAR Green, Invitrogen). In this assay, the fluorescently labeled ligand is binding to the human PPARγ LBD, which brings it in close spatial proximity to the terbium-labeled anti-GST antibody. Excitation of the terbium at 340 nm results in energy transfer (FRET) and partial excitation of the fluorescently labeled PPAR ligand, followed by emission at 520 nm. Test-compounds binding to the human PPARγ LBD are competing with the fluorescently labeled ligand and displacing it, resulting in a decrease of the FRET signal. […] All measurements were performed with a GeniosPro plate reader (Tecan, Grödig, Austria).
One-way analysis of variance (ANOVA) with Bonferroni post hoc test, or two-tailed paired t-test was used to determine statistical significance. […]

A further assay has as its system 3T3-L1 preadipocytes. The experiment in a line: Adipogenicity: 3T3-L1 preadipocyte differentiation, Oil Red O staining. In kind it is cell-based. To be noted: 10 µM, with 1 µg/ml insulin, compared with pioglitazone 10 µM; listed as falcarindiol. On the procedure:
3T3-L1 preadipocytes (ATCC, USA) were propagated in DMEM supplemented with 10% calf serum. […]. The medium was renewed every two days until day 8. For an estimate of lipid accumulation, Oil Red O staining was performed. For this, cells were fixed in 10% formaldehyde for 1 h and stained with Oil Red O for 10 min. After washing off excessive dye, bound dye was solubilized with 100% isopropanol and photometrically quantified at 550 nm. For better appreciation of the adipogenic potential of the investigated PPARγ agonists, a subset of preadipocytes was treated according to a common standard differentiation protocol (2 days in DMEM/10% FBS/500 µM IBMX/500 nM dexamethasone and 1 µg/mL insulin (MDI), followed by 2 days in DMEM/10% FBS/1 µg/ml insulin and 6 days in DMEM/10% FBS).
Figure 4 Assessment of adipogenicity and glucose uptake-enhancing properties of falcarindiol. […]; containing 10% FBS, 500 µM IBMX, 500 nM dexamethasone, and 1 µg/ml insulin) as a positive control. For an estimate of accumulated lipids, and thus for the adipogenic potential of the test compounds, Oil Red O staining and photometric quantification at 550 nm was performed. […] (B) 3T3-L1 mature adipocytes were incubated with falcarindiol (10 µM) or solvent vehicle (0.1% DMSO) for 48 h and 2-deoxy-D-(1H^3)-glucose cellular uptake was determined for 10 min in the presence or absence (basal uptake) of insulin (500 pM). […]

Several values for one entry are separate records, joined by “and”; a condition that tells them apart may be missing. Equal values may be shown once. Entries after “also recorded” stand apart in the source; their conditions may differ.

Consider `C=C[C@@H](O)C#CC#C[C@H](/C=C\CCCCCCC)OC(C)=O` [compound 1, 3R,8S,9Z-3-hydroxyheptadeca-1,9-diene-4,6-diyne-8-yl acetate], for which the EC50 on human PPARγ is 3.59 µM; on human PPARβ/δ it was above 30 µM; on human PPARα, above 30 µM. Further, on human PPARγ, the “PPARγ activation maximal fold activation” value amounted to 2.36 fold.

Take `C=C[C@@H](O)C#CC#C[C@@H](O)/C=C\CCCCCCC` [compound 2, 3R,8S,9Z-heptadeca-1,9-diene-4,6-diyne-3,8-diol]: in the assay on 3T3-L1 adipocytes, the insulin-mediated glucose uptake result is “significantly enhanced”. Moreover, the Ki in assay [1] is 3.07 µM and 3.1 µM. The “3T3-L1 adipocyte differentiation (lipid accumulation, Oil Red O)” value in the assay with 3T3-L1 preadipocytes was “induced 3T3-L1 preadipocyte differentiation; also recorded: induced the differentiation to adipocytes as expected, although to a smaller extent than pioglitazone”. Further, the EC50 was 3.29 µM at human PPARγ, above 30 µM on human PPARβ/δ and above 30 µM at human PPARα. On human PPARγ, the “PPARγ activation maximal fold activation” value was found to be 3.26 fold. In addition, on human PPARγ (co-treatment with 1 µM pioglitazone, 18 h, maximal block), the “share of the stimulating effect of pioglitazone blocked by co-treatment” value is 70–80%. The “stimulating effect upon co-treatment with PPARγ antagonist T0070907” value at human PPARγ (falcarindiol 10 µM, T0070907 1 µM) was “blocked”.

On to `C=C[C@@H](O)C#CC#C[C@@H](O)C1OC1CCCCCCC` (stereo partly drawn) [compound 3, 1R,6R-1-(3-heptyloxiran-2-yl)octa-7-ene-2,4-diyne-1,6-diol], for which the EC50 is 2.03 µM on human PPARγ, above 30 µM at human PPARβ/δ and above 30 µM on human PPARα. The “PPARγ activation maximal fold activation” value on human PPARγ is 1.88 fold.

Turning to `C=C[C@@H](O)/C=C/C#C[C@@H](O)/C=C\CCCCCCC` [compound 4, 3R,4E,8S,9Z-heptadeca-1,4,9-triene-6-yne-3,8-diol], the EC50 at human PPARγ is 4.58 µM; on human PPARβ/δ, above 30 µM; at human PPARα, above 30 µM. Besides, the “PPARγ activation maximal fold activation” value on human PPARγ was found to be 2.29 fold.

`CCCCCCC/C=C\CC#CC#CCCCO` [compound 5, 9Z-heptadecene-4,6-diyne-1-ol]: the EC50 at human PPARγ was 11.3 µM; at human PPARβ/δ it was above 30 µM; on human PPARα, above 30 µM. At human PPARγ, the “PPARγ activation maximal fold activation” value was 1.92 fold.

Regarding `CCCCCCC/C=C\CC#CC#C/C=C\CO` [compound 6, 2Z,9Z-heptadecadiene-4,6-diyne-1-ol], the figures for the EC50 at human PPARγ, on human PPARβ/δ and at human PPARα were 4.18 µM, above 30 µM and above 30 µM, respectively. Further, the “PPARγ activation maximal fold activation” value on human PPARγ is reported as 1.73 fold.

As a reminder, the Ki is the dissociation constant of the complex between target and ligand, obtained from inhibition or displacement. High values mean weaker binding, low ones tighter binding.

The values above are taken from publication PMC3632601, “Polyacetylenes from Notopterygium incisum–New Selective Partial Agonists of Peroxisome Proliferator-Activated Receptor-Gamma” (PLoS ONE, 2013).
